Source: patent US9957484B2, “Methods for promoting cell reprogramming” (Sanford-Burnham Medical Research Institute, priority 2011, dated 2018)

Experiments:
Assay type in all cases: cell-based, mouse
[1] = test system: 4F-transduced Oct4-GFP MEFs; test: Kinase inhibitor treatment of 4F-transduced Oct4-GFP MEFs, Oct4-GFP+ colony count (reprogramming efficiency); conditions: for reprogramming, Oct4-GFP+ colonies, dose/response: 0.5 μM, drug from day 3, colonies at day 13; for iPSC generation in non-permissive conditions: 4F expression too low to reprogram vehicle-treated MEFs, GFP+ colonies at day 12-13; for iPSC generation when p53 is silenced by shRNA: 4F plus p53 shRNA, inhibitor from day 3, GFP+ colonies at day 12; for reprogramming, Oct4-GFP+ colonies: secondary screen, 12-well plates, 2 μM, drug from day 3, colonies at day 13, vs DMSO
Procedure: MEFs were cultured in DMEM (Invitrogen, 11995-065) with 10% FBS (Invitrogen) plus glutamine and NEAA. Only MEFs at passage of 0 to 4 were used for reprogramming. pMX-Oct4, Sox2, Klf4 and cMyc were purchased from Addgene. […] Viruses were harvested and combined 2 days later. For reprogramming, MEFs were seeded in 12-well plates and transduced with 4F virus the next day with 4 ug/ml Polybrene. One day later, the medium was changed to fresh MEF medium, and 3 days later it was changed to mES culture medium supplemented with LIF (Millipore, ESG1107). GFP+ colonies were picked at day 14 post-transduction, and expanded clones were cultured in DMEM with 15% FBS (Hyclone) plus LIF, thioglycerol, glutamine and NEAA. Irradiated CF1 MEFs served as feeder layers to culture mES cells and derived iPS clones.
All compounds are well-characterized protein kinase inhibitors. Compounds were diluted to 2 mM in 96-well plates. 4F-transduced cells were seeded into gelatin coated plates (4000 cells/well). Inhibitors were added every other day until day 13. Cells were then fixed with 4% paraformaldehyde for 20 min at room temperature and number of Oct4-GFP+ colonies was directly counted under a microscope. Cells were then stained with Vector red alkaline phosphatase substrate kit I™ (Vector laboratories, SK5100).
To define signaling mechanisms underlying reprogramming, a double-blind screen of 244 well-characterized cell-permeable protein kinase inhibitors was undertook to identify kinases that enhance or inhibit the process. Mouse embryonic fibroblasts from a transgenic line in which GFP expression is driven by the endogenous Oct4 promoter were chosen as the starting material for a reporter cell line of somatic cell reprogramming. Fully reprogrammed cells switch on endogenous Oct4 expression, making resultant iPS colonies GFP-positive and enabling quantification of reprogramming efficiency. To minimize well-to-well variation, MEFs were first transduced with 4F factors in bulk (FIG. 9A) and then reseeded at 3000 cells/well into gelatin-coated 96-well plates before inhibitor treatment. Starting at day 3 post-transduction, inhibitors were added at a final concentration of 2 μM and media were refreshed every other day with mES culture medium plus inhibitor. At day 13 post-transduction, plates were fixed in 4% paraformaldehyde and GFP-positive colonies were directly quantified microscopically.
Two columns of wells from each plate (columns 1 and 12) were treated with DMSO (vehicle) only and served as controls.

[2] = test system: 4F-infected MEFs; test: Cell proliferation assay (Celltiter 96 aqueous), 4F-infected MEFs; conditions: 4F-transduced MEFs, 0.5 μM
Procedure: (§1) MEFs were treated with drugs at 2 μM and proliferation was assayed by using the Celltiter 96™ aqueous method (Promega). Y-axis represents the absorbance at 490 nm to detect formazan, which is converted from MTS tetrazolium by living cells. A higher reading indicates increased cell number. […] Oct4-GFP+ colonies were quantified at day 13.
(§2) FIG. 16A is a graph plotting relative cell viability. 4F-infected MEFs were seeded in 96-well plates and 0.5 μM of three inhibitors was added at day 3 after transduction (Day 0 in dataset). Proliferation of cells was analyzed every other day using the Celltiter 96™ aqueous method (Promega). FIG. 16B is a graph plotting relative cell viability. […] The experimental procedure is the same as in FIG. 16A.
(§3) Cell proliferation assay: 3000 MEFs were seeded in each well in 96-well plates and transduced with 4F virus for three days. Cells were then treated with inhibitors at 0.5 μM and harvested every other day. Cells were incubated with mES medium containing Celltiter 96 Aqueous™ one solution (Promega, G3580) for 1 hr in tissue culture incubator. Absorbance at 490 nm was then measured for each well using a plate reader, and data was used to generate relative proliferation curves using the signal from day 3 post-transduction as a reference.

[3] = test system: uninfected MEFs; test: Cell proliferation assay (Celltiter 96 aqueous), uninfected MEFs; conditions: 0.5 μM
Procedure: as §1, §2, §3

[4] = test system: MEFs during reprogramming; test: Alkaline phosphatase (AP)+ colony formation during reprogramming; conditions: molecule applied during reprogramming
[5] = test system: GSK3β; test: Western blotting of phospho- and total GSK3β; conditions: 4F-infected MEFs, 1 μM each of Akt X and B6
Procedure: 4F-infected MEFs were treated with different doses of B6 inhibitor starting at day 3 post-infection for 48 hrs before being harvested for western blotting analysis.
The experiment was the same as FIG. 5C. Actin served as the loading control.
4F-infected MEFs were treated with 1 μM each of Akt inhibitor (Akt X) and B6.
Membranes were blocked with 5% milk in TBST for at least 1 hr at room temp or overnight at 4° C.

[6] = test system: OSKM-transduced Oct4-EGFP MEFs; test: OSKM-induced reprogramming with small molecules, GFP+ colonies; conditions: treated four days after OSKM transduction for at least 10 days, vs DMSO
Procedure: All 17 molecules are tested by examining alkaline phosphatase (AP)+ colony formation during reprogramming while these molecules were applied. […] To evaluate their effect on induction of mature GFP+ iPS cells, OSKM-transduced Oct4-EGFP MEFs are treated four days after transduction with each of these factors separately.
Oct4-EGFP MEFs are transduced with OSKM and four days later treated with individual small molecules for at least 10 days. GFP+ colonies are identified. Error bars represent standard deviations of three independent experiments. *p value<0.05; **p value<0.005.

With `O=[N+]([O-])c1ccc(CNc2nc(NCc3cccc(C(F)(F)F)c3)nc3nc[nH]c23)cc1` [BIM-0207164] the “reprogramming, Oct4-GFP+ colonies, dose/response” value [1] was “potent enhancers”, the “iPSC generation in non-permissive conditions” value [1] was “enhanced iPSC generation even in non-permissive conditions” and the “iPSC generation when p53 is silenced by shRNA” value [1] was “equivalent in inhibitor-treated and -untreated conditions”. For the same compound, the “reprogramming, Oct4-GFP+ colonies” value [1] was “consistently and significantly enhanced reprogramming”, the proliferation [2] was “did not significantly promote proliferation” and the proliferation [3] was “did not significantly promote proliferation”.

For `O=C(NCCN1CCOCC1)c1ccc(Cl)cc1` [Moclobemide], the “effect on AP+ colony formation” value [4] was “not showing adverse effect on AP+ colony formation”.

With `COC(=O)[C@H]1[C@H]2C[C@H]3c4[nH]c5ccccc5c4CCN3C[C@@H]2CC[C@@H]1O.Cl` [Corynanthine, Corynanthine hydrochloride] the “effect on AP+ colony formation” value [4] was “not showing adverse effect on AP+ colony formation”.

With `CCN(CC)CCCCN1c2ccccc2Oc2ccc(Cl)cc21` [Akt X] the reprogramming ([1]; 1 μM, triplicate wells) was “compromises reprogramming” and the GSK3β phosphorylation [5] was “diminished”.

In the case of `COc1ccc2cc(CCC(C)=O)ccc2c1` [Nabumetone], the “increase in number of reprogrammed colonies” value [6] was “at least 2.8 fold” and the “effect on AP+ colony formation” value [4] was “not showing adverse effect on AP+ colony formation”.

`O=S(=O)(c1c(O)c(Cl)cc(Cl)c1Cl)c1c(O)c(Cl)cc(Cl)c1Cl` [BIM-0207174] was tested, and the “reprogramming, Oct4-GFP+ colonies, dose/response” value [1] was “potent enhancers”, the “iPSC generation in non-permissive conditions” value [1] was “enhanced iPSC generation even in non-permissive conditions” and the “iPSC generation when p53 is silenced by shRNA” value [1] was “equivalent in inhibitor-treated and -untreated conditions”. The “reprogramming, Oct4-GFP+ colonies” value [1] was “consistently and significantly enhanced reprogramming”, the proliferation [2] was “did not significantly promote proliferation” and the proliferation [3] was “did not significantly promote proliferation”.

`Cc1cccc(-c2[nH]c(C(C)(C)C)nc2-c2ccc3c(c2)OCO3)n1` [BIM-0086716] was tested, and the “reprogramming, Oct4-GFP+ colonies” value [1] was “consistently and significantly enhanced reprogramming”.

With 4-hydroxytamoxifen the “effect on AP+ colony formation” value [4] was “not showing adverse effect on AP+ colony formation”.
